Test results reported in patent publication US7754856B2, “Human sodium-dependent bile acid transporter proteins” (Takeda Pharmaceutical Company Limited, priority 2002, dated 2010).

Biological target: T1, human TCH230 (Homo sapiens, UniProt Q3KNW5)
T1 construct: expressed in transfected cells
T1 sequence (Q3KNW5 1-377): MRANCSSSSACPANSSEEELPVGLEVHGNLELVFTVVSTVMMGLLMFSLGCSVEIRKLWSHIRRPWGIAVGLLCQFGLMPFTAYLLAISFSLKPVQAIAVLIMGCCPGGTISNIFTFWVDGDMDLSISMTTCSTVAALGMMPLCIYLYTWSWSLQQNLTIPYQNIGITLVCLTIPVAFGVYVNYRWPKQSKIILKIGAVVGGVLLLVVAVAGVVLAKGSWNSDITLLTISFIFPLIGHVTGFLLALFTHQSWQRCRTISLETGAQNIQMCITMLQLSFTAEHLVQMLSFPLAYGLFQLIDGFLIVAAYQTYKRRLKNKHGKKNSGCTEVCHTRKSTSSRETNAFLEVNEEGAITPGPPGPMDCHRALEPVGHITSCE
Test: Incorporation of labeled steroid sulfates into human TCH230-expressing CHO cell strain
Type: cell-based
Conditions: for incorporation into human TCH230 expressing CHO cells (radioactivity): CHO clone No. 19-6, in the presence of 140 mM NaCl (NaCl buffer vs NMDG buffer, vs Mock cells), 37° C., 1 hour, values only in FIG. 17/18; for substrate of the novel sodium-dependent bile acid transporter protein: summary statement in disclosure
Procedure: Incorporation of [6,7-^3H(N)]-estrone sulfate and [1,2,6,7-^3H(N)]-dehydroepiandrosterone sulfate (hereinafter also referred to as [1,2,6,7-^3H(N)]-DHEA-S) into the human TCH230 (SEQ ID NO:1)-expressing CHO cell strain clone No. 19-6 obtained in Example 19 was measured.
The human TCH230 (SEQ ID NO:1) expressing CHO cell strain clone No. 19-6 was inoculated at a density of 4×10^4 cells/well in a 96 well plate, and cultured at 37° C. for 24 hours in MEMα medium (Invitrogen, Inc.) containing 5 mM sodium butyrate. The medium was removed, and the cells were washed 3 times with 150 μL NMDG buffer (140 mM N-methyl-D(−)-glucamine, 5.4 mM KCl, 0.34 mM Na2HPO4, 0.44 mM KH2PO4, 1.26 mM CaCl2, 0.41 mM MgSO4, 0.49 mM MgCl2, 5.55 mM glucose, pH 7.4-7.6), and incubated in 150 μL NMDG buffer at 37° C. for 1 hour. The buffer was replaced with 90 μL NaCl buffer (140 mM NaCl, 5.4 mM KCl, 0.34 mM Na2HPO4, 0.44 mM KH2PO4, 1.26 mM CaCl2, 0.41 mM MgSO4, 0.49 mM MgCl2, 5.55 mM glucose, pH 7.4-7.6) or 90 μL NMDG buffer, followed by adding 10 μL of 2.5 μM estrone sulfate, ammonium salt, [6,7-^3H(N)]— or 1.37 μM dehydroepiandrosterone sulfate, sodium salt, [1,2,6,7-^3H(N)]— (all of which are available from Perkin-Elmer Life Science). The cells were incubated at 37° C. for 1 hour, and the buffer was removed, then washed 3 times with 200 μL PBS (Takara Bio) and lysed with 10 μL of 0.1N NaOH. 100 μL SuperMix scintillator (Perkin-Elmer Life Science) was added thereto and stirred, and the amount of [6,7-^3H(N)]-estrone sulfate or [1,2,6,7-^3H(N)]-DHEA-S incorporated into the cells was measured in terms of radioactivity. This measurement was carried out with 1450 MICROBETA PLUS LIQUID SCINTILLATION COUNTER (Perkin-Elmer Life Science). CHO dhfr− cells into which vector pcDNA3.1(+) had been introduced (also referred to hereinafter as Mock) was also subjected to the same procedure and measured for radioactivity.

Substance	incorporation into human TCH230 expressing CHO cells (radioactivity)	substrate of the novel sodium-dependent bile acid transporter protein
[6,7-^3H(N)]-estrone sulfate	incorporate	substrate
[1,2,6,7-^3H(N)]-dehydroepiandrosterone sulfate [[1,2,6,7-^3H(N)]-DHEA-S]	incorporate	substrate
